Experimental findings from US12145975B2, “Fusion proteins for the treatment of cardiometabolic diseases” (Shattuck Labs, Inc., priority 2022, dated 2024) are described below.

Data set [1] deals with T1, recombinant human Activin A (Homo sapiens, UniProt P08476).
T1 sequence (P08476 311-426): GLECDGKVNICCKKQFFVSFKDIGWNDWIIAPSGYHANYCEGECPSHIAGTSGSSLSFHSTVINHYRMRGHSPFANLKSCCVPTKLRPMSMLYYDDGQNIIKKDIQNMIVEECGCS
The data set is described as follows: MSD platform-based binding assay to plate-bound Activin A. The following applies: anti-human Fc detection. The method, then: The binding by a recombinant human ACVR2B-Fc fusion protein to activin A (also known as Inhibin beta A) was characterized using a Meso Scale Discovery (MSD) platform-based assay. Briefly, Activin A was coated on a plate and 8× serial dilutions of the purified recombinant human ACVR2B-Fc fusion protein were also added in a series of wells. The protein captured by the plate-bound Activin A was detected using an anti-human Fc antibody and a SULFO-TAG conjugated secondary antibody.
(§1) The binding to Activin A by the GLP-1-Fc-ACVR2B fusion protein produced using the mmRNA constructs was investigated using a Meso Scale Discovery (MSD) platform-based assay. Briefly, HEK293T cells were transfected with each mRNA construct using lipofectamine 2000, and culture supernatants were collected after 48 hours. Activin A was coated on a plate, and 3× serial dilutions of the culture supernatants were added to the plate for capture by the plate-bound Activin A. The protein captured by the plate-bound Activin A was detected using an anti-human Fc antibody and a SULFO-TAG conjugated secondary antibody. The MSD signals generated by the culture supernatants of HEK293T cells transfected with different mmRNA constructs were plotted as a line graph.

For data set [2], the target named is T2, recombinant human GDF-8 (Homo sapiens, UniProt O14793).
T2 sequence (O14793 267-375): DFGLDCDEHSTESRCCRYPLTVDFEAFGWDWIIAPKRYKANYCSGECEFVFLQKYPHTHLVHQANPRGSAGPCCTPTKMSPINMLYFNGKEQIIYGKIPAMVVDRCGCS
Kind of data set: MSD platform-based binding assay to plate-bound GDF-8. The following applies: anti-human Fc detection. The method, then: The binding by a recombinant human ACVR2B-Fc fusion protein to GDF-8 (also known as myostatin) was characterized using a Meso Scale Discovery (MSD) platform-based assay. Briefly, GDF-8 was coated on a plate and 8× serial dilutions of the purified recombinant human ACVR2B-Fc fusion protein were also added in a series of wells. The protein captured by the plate-bound GDF-8 was detected using an anti-human Fc antibody and a SULFO-TAG conjugated secondary antibody.
as §1, with “GDF-8” for “Activin A”, “GDF-8.” for “Activin A.”

The test system of data set [3] is rat insulinoma INS-1 cells. The data set is described as follows: in vitro glucose-stimulated insulin secretion (GSIS) in rat insulinoma INS-1 cells. Type of data set: cell-based. The following applies: 1 hour glucose, then 2 hour incubation; ELISA; FIG. 4B. From the text: X is a known inducer of GSIS.
A general note: An ELISA detects its analyte on a solid surface through an enzyme-linked reagent.

In data set [4] the test system is HFD-fed mice. Kind of data set: glucose tolerance test (GTT) model in HFD-fed mice. The format is in vivo. The method, then: Cages were changed once, then changed once a week.
The mice administered the above treatment by i.v. injections. The mice were then fasted for 18 hours and administered a dose of 2 g/kg glucose by i.v. injections. Blood samples were drawn by tail clip bleeding at 15, 30 and 60 minutes post dosing and cardiac bleeding was used at 2 hours after glucose injection as end-point.

The subject of data set [5] is HFD-fed mice. The data set is described as follows: longer-term obesity model in HFD-fed mice. The method, then: Mice (Male C57BL/6) were of approximately 13 weeks of age were housed 4 mice per cage. Following 2 weeks of acclimation, mice were introduced to 60% kcal HFD (Research Diets D12492). Cages were changed once, then changed once a week. Weekly body weights and non-fasted blood glucose were collected.
Mice were injected by tail vein with vehicle or the drugs on Day 0, Day 4, Day 7, Day 10, Day 14, and Day 18. Body weights were measured every 2 days. Change in body weight was calculated and plotted.
Cumulative food intake was measured between day 0 and 3, between day 4 and 7, between day 7 and day 11, and between day 11 and day 14, and represented as average daily food intake. For food consumption, remaining food was weighed on days 3, 8, and 15, and subtracted from the starting weight. This value was then normalized to the number of mice in the cage, and the number of days the mice had access to the food prior to weighing.
Blood glucose levels were measured on Days 0, 1, 10 and 15 and plotted.
On day 19 during terminal necropsy, liver and subcutaneous white adipose tissue were recovered weighed from treated animals.
To further analyze the changes in liver, histopathological analysis was conducted. Briefly, the liver tissue was stained with hematoxylin and eosin (H&E) and evaluated using standard techniques.

The target in data set [6] is T3, GIP receptor (GIPR) (Rattus norvegicus, UniProt P43219).
T3 construct: endogenous in cells; host or cells: rat INS-1 insulinoma cells (derivatives with a cAMP-luciferase reporter or pGloSensor-22F)
T3 sequence (P43219 19-455): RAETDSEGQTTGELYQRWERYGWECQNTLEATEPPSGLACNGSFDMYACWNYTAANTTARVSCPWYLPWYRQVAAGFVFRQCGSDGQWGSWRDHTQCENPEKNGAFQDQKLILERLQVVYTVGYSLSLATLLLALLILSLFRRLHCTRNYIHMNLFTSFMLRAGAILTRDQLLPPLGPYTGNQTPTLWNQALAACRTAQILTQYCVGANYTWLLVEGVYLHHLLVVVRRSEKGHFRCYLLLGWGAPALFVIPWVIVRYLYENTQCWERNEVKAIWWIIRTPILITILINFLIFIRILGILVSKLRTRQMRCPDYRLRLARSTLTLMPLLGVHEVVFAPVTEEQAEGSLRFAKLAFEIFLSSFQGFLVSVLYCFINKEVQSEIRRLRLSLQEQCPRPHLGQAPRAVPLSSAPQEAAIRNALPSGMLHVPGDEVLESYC
Kind of data set: cAMP-Glo assay in rat insulinoma INS-1 cells harboring a cAMP-luciferase reporter gene. Type of data set: cell-based. The following applies: 1 hour glucose, then 2 hour incubation with increasing amounts; FIG. 4A. From the text: Rat insulinoma INS-1 cells harboring a cAMP-luciferase reporter gene were used to study the activation of GIPR. Without wishing to be bound by theory, the activation of GIPR leads to temporary depletion of ATP because of consumption of ATP in cyclization reaction to produce cAMP as well as by phosphorylation by protein kinase A of its substrate. Without wishing to be bound by theory, the temporary depletion of ATP leads to an inhibition of luciferase activity, which needs ATP as a substrate.
(In general: Reporter assays use an easily measured gene product as a stand-in for the process of interest.)

With “GLP-1-Fc-ACVR2B: GLP-1 fused to extracellular domain of ACVR2B via IgG1 Fc domain; SEQ ID NO: 154; tested as culture supernatant of mmRNA-transfected HEK293T cells”, the “binding to Activin A” value in data set [1] is recorded as “binds to the human Activin A”. In addition, the “binding to GDF-8” value in data set [2] was “binds to the human GDF-8”.

Take “GLP-1-Fc-GIP(Ag): chimeric protein: GLP-1 fused to GIP agonist (amino acids 1-42) via IgG1 hinge-CH2-CH3 Fc domain; SEQ ID NO: 93”: in data set [3], the “insulin in the culture supernatant (glucose-stimulated insulin secretion)” value is “stimulated insulin production to a similar, if not greater magnitude than dulaglutide or tirzepatide”. Further, the “serum insulin following glucose administration (time course)” value in data set [4] (GTT, FIG. 7C) is “rapid induction of insulin”. Moreover, the glucose tolerance entry in data set [4] (GTT, summary of Example 11) is given as “improved glucose tolerance”. Besides, the “serum glucose following glucose administration (time course)” value in data set [4] (i.v. treatment, 18 hours fast, 2 g/kg glucose i.v., tirzepatide 1.25 mpk, fusion protein 5 mpk, mRNA 1 mpk, FIG. 7A) is listed as “much smaller increase in serum glucose”. The “blood glucose levels compared to the untreated mice” value in data set [5] (Days 0, 1, 10 and 15, FIG. 8E) is reported as “decrease in blood glucose”. The “weights of individual mice” value in data set [5] (FIG. 8B) is recorded as “induced weight loss”. For the same molecule, the “plasma insulin levels on Day 15” value in data set [5] (FIG. 8C right panel) was “significant decrease in the levels of insulin”. Moreover, the “average daily food intake compared to the untreated mice” value in data set [5] (FIG. 8D) is on record as “decrease in food intake”. Also, the “collagen staining (fibrosis), liver sections stained with picrosirius red” value in data set [5] (FIG. 8I) is on record as “decrease in collagen staining”. For the same molecule, the “hepatocellular ballooning and steatosis (liver H&E histology)” value in data set [5] (FIG. 8J) is “decrease in hepatocellular ballooning and steatosis”. Besides, the “plasma insulin levels on Day 1” value in data set [5] (between 15 and 120 minutes after treatment, FIG. 8C left panel) was “rapid decrease in insulin levels”. For the same molecule, the “liver weight, PBS control versus treated mice” value in data set [5] (day 19 terminal necropsy, FIG. 8G) is “the livers of control mice that received only PBS were much heavier compared to the mice receiving treatments”. The “subcutaneous white adipose tissue (sWAT) weight” value in data set [5] (day 19 terminal necropsy, FIG. 8H) is on record as “decreased”. The “tolerability / clinical observations” value in data set [5] (obesity model, repeated tail vein dosing) was “well tolerated and no overt toxicities were noted”. For the same molecule, in data set [5] (picrosirius red, FIG. 8I), the “collagen staining (fibrosis) in comparison with tirzepatide or dulaglutide” value is given as “greater decrease in collagen staining compared to the livers from mice treated with tirzepatide or dulaglutide”. The “change in body weight” value in data set [5] (tail vein on Day 0, 4, 7, 10, 14, 18, dulaglutide 1 mpk, tirzepatide 0.5 mpk, fusion protein 5 mpk, mRNA 1 mpk, FIG. 8A) is “progressive weight loss”.

B1: GIP(Ag)-Fc-FGF19: chimeric protein: GIP fused to FGF19 via IgG1 hinge-CH2-CH3 Fc domain; SEQ ID NO: 88 (protein)
chain: YAEGTFISDYSIAMDKIHQQDFVNWLLAQKGKKNDWKHNITQPCPAPEAAGGPSVFLFPPKPKDTLMISRTPEVTCVVVDVSHEDPEVKFNWYVDGVEVHNAKTKPREEQYNSTYRVVSVLTVLHQDWLNGKEYKCKVSNKALPAPIEKTISKAKGQPREPQVYTLPPSRDELTKNQVSLTCLVKGFYPSDIAVEWESNGQPENNYKTTPPVLDSDGSFFLYSKLTVDKSRWQQGNVFSCSVMHEALHNHYTQKSLSLSPGKIEGRMDRDSSPLVHYGWGDPIRLRHLYTSGPHGLSSCFLRIRADGVVDCARGQSAHSLLEIKAVALRTVAIKGVHSVRYLCMGADGKMQGLLQYSEEDCAFEEEIRPDGYNVYRSEKHRLPVSLSSAKQRQLYKNRGFLPLSHFLPMLPMVPEEPEDLRGHLESDMFSSPLETDSMDPFGLVTGLEAVRSPSFEK
Consider B1, for which the “inhibition of luciferase (activation of GIPR)” value in data set [6] is “dose-dependent and saturable inhibition of luciferase with similar potency”. In addition, the “insulin in the culture supernatant (glucose-stimulated insulin secretion)” value in data set [3] is “stimulated insulin production to a similar, if not greater magnitude than dulaglutide or tirzepatide”.
